Measurements published in the NIST ThermoML archive (doi:10.1016/j.tca.2011.02.004).
± gives the expanded uncertainty stated by the source.

What was measured:
[1] = 101.3 kPa, Liquid; for speed of sound: Linear variable-path acoustic interferometer; for mass density: Pycnometric method
[2] = xn = mol fraction of the nth substance listed; conditions: 101 kPa, Liquid; for speed of sound: Linear variable-path acoustic interferometer; for mass density: Pycnometric method

## CCN(CC)c1ccccc1 [N,N-diethylaniline]
[1]; 303.15 K
  speed of sound: 1434 ± 3 m/s
  mass density: 926.2 ± 0.3 kg/m3
[1]; 313.15 K
  speed of sound: 1396 ± 3 m/s
  mass density: 917.6 ± 0.3 kg/m3
[1]; 323.15 K
  speed of sound: 1358 ± 3 m/s
  mass density: 909.2 ± 0.4 kg/m3

## CC(C)OC(C)C [diisopropyl ether] + CCN(CC)c1ccccc1
[2]; 303.15 K, x1 = 1
  speed of sound: 976 ± 2 m/s
  mass density: 712.9 ± 0.3 kg/m3
[2]; 313.15 K, x1 = 1
  speed of sound: 932 ± 2 m/s
  mass density: 702.5 ± 0.3 kg/m3
[2]; 323.15 K, x1 = 1
  speed of sound: 889 ± 2 m/s
  mass density: 691.9 ± 0.3 kg/m3

## CC(C)OC(C)C [diisopropyl ether]
[1]; 303.15 K
  speed of sound: 976 ± 2 m/s
  mass density: 712.9 ± 0.3 kg/m3
[1]; 313.15 K
  speed of sound: 932 ± 2 m/s
  mass density: 702.5 ± 0.3 kg/m3
[1]; 323.15 K
  speed of sound: 889 ± 2 m/s
  mass density: 691.9 ± 0.3 kg/m3

## CCN(CC)c1ccccc1 [N,N-diethylaniline] + CC(C)OC(C)C
[2]; 303.15 K, x2 = 0
  speed of sound: 1434 ± 3 m/s
  mass density: 926.2 ± 0.3 kg/m3
[2]; 303.15 K, x2 = 0.078
  speed of sound: 1403 ± 3 m/s
  mass density: 914.4 ± 0.3 kg/m3
[2]; 303.15 K, x2 = 0.1606
  speed of sound: 1370 ± 3 m/s
  mass density: 901 ± 0.3 kg/m3
[2]; 303.15 K, x2 = 0.2581
  speed of sound: 1330 ± 3 m/s
  mass density: 884 ± 0.3 kg/m3
[2]; 303.15 K, x2 = 0.3421
  speed of sound: 1295 ± 2 m/s
  mass density: 868.5 ± 0.3 kg/m3
[2]; 303.15 K, x2 = 0.4336
  speed of sound: 1255 ± 2 m/s
  mass density: 850.7 ± 0.3 kg/m3
[2]; 303.15 K, x2 = 0.5341
  speed of sound: 1209 ± 2 m/s
  mass density: 829.8 ± 0.3 kg/m3
[2]; 303.15 K, x2 = 0.6457
  speed of sound: 1156 ± 2 m/s
  mass density: 804.7 ± 0.3 kg/m3
[2]; 303.15 K, x2 = 0.7545
  speed of sound: 1103 ± 2 m/s
  mass density: 778.3 ± 0.3 kg/m3
[2]; 303.15 K, x2 = 0.8762
  speed of sound: 1042 ± 2 m/s
  mass density: 746.7 ± 0.3 kg/m3
[2]; 313.15 K, x2 = 0
  speed of sound: 1396 ± 3 m/s
  mass density: 917.6 ± 0.3 kg/m3
[2]; 313.15 K, x2 = 0.078
  speed of sound: 1367 ± 3 m/s
  mass density: 906.8 ± 0.3 kg/m3
[2]; 313.15 K, x2 = 0.1606
  speed of sound: 1336 ± 3 m/s
  mass density: 893.6 ± 0.3 kg/m3
[2]; 313.15 K, x2 = 0.2581
  speed of sound: 1296 ± 2 m/s
  mass density: 876.7 ± 0.3 kg/m3
[2]; 313.15 K, x2 = 0.3421
  speed of sound: 1260 ± 2 m/s
  mass density: 861.1 ± 0.3 kg/m3
[2]; 313.15 K, x2 = 0.4336
  speed of sound: 1218 ± 2 m/s
  mass density: 843 ± 0.3 kg/m3
[2]; 313.15 K, x2 = 0.5341
  speed of sound: 1171 ± 2 m/s
  mass density: 822.1 ± 0.3 kg/m3
[2]; 313.15 K, x2 = 0.6457
  speed of sound: 1117 ± 2 m/s
  mass density: 797.1 ± 0.3 kg/m3
[2]; 313.15 K, x2 = 0.7545
  speed of sound: 1063 ± 2 m/s
  mass density: 770.6 ± 0.3 kg/m3
[2]; 313.15 K, x2 = 0.8762
  speed of sound: 1000 ± 2 m/s
  mass density: 738.3 ± 0.3 kg/m3
[2]; 323.15 K, x2 = 0
  speed of sound: 1358 ± 3 m/s
  mass density: 909.2 ± 0.4 kg/m3
[2]; 323.15 K, x2 = 0.078
  speed of sound: 1332 ± 3 m/s
  mass density: 899 ± 0.4 kg/m3
[2]; 323.15 K, x2 = 0.1606
  speed of sound: 1302 ± 2 m/s
  mass density: 886.6 ± 0.4 kg/m3
[2]; 323.15 K, x2 = 0.2581
  speed of sound: 1261 ± 2 m/s
  mass density: 870.2 ± 0.3 kg/m3
[2]; 323.15 K, x2 = 0.3421
  speed of sound: 1224 ± 2 m/s
  mass density: 854.7 ± 0.3 kg/m3
[2]; 323.15 K, x2 = 0.4336
  speed of sound: 1182 ± 2 m/s
  mass density: 836.7 ± 0.3 kg/m3
[2]; 323.15 K, x2 = 0.5341
  speed of sound: 1134 ± 2 m/s
  mass density: 815.7 ± 0.3 kg/m3
[2]; 323.15 K, x2 = 0.6457
  speed of sound: 1080 ± 2 m/s
  mass density: 790.6 ± 0.3 kg/m3
[2]; 323.15 K, x2 = 0.7545
  speed of sound: 1023 ± 2 m/s
  mass density: 764 ± 0.3 kg/m3
[2]; 323.15 K, x2 = 0.8762
  speed of sound: 958 ± 2 m/s
  mass density: 730.8 ± 0.3 kg/m3
